The test system of data set [1] is Escherichia coli DSM 30083. The method, then: (§1) The antibacterial activity of the peptides was first assessed by determining their minimum inhibitory concentration (MIC) value. This MIC value represents the lowest concentration of the antibacterial agent that is needed to hinder the growth of the bacteria. For this, six standard bacterial strains – among them three Gram-negative and three Gram-positive pathogens – were incubated with increasing concentrations of the antibacterial peptide (Table 2). In order to put the activities of these RW-based synAMPs and their organometallic conjugates into perspective, two reference peptides were included, i.e., membrane-targeting gramicidin S derivative GS(K2Y2) and cell wall precursor lipid II-targeting vancomycin.
(§2) The minimal inhibitory concentrations (MIC) were tested against Escherichia coli DSM 30083, Acinetobacter baumannii DSM 30007, Pseudomonas aeruginosa DSM 50071, Bacillus subtilis DSM 402, Staphylococcus aureus DSM 20231 (type strain), and Staphylococcus aureus ATCC 43300 (MRSA) in a microtiter plate assay according to CLSI guidelines. E. coli, A. baumannii, S. aureus, and B. subtilis were grown in Mueller–Hinton (MH) broth, P. aeruginosa in cation adjusted Mueller–Hinton II. […] Serial dilution in culture media was carried out automatically with the Tecan Freedom Evo 75 liquid handling workstation (Tecan, Männedorf, Switzerland) from 512 to 0.5 µg/mL. Peptide dilutions were inoculated with 10^5 bacteria/mL taken from late exponential cultures grown in the same media in a total volume of 200 µL per well. Cells were incubated for 16 h at 37 °C. The lowest peptide concentration inhibiting visible bacterial growth was taken as MIC.
(§3) Cells were grown in DMEM until late exponential phase before using them for inoculation. Peptide concentrations, inoculation and incubation were performed as described above.

In data set [2] the test system is Acinetobacter baumannii DSM 30007. The data set is described as follows: microbe, parasite or virus in culture. The method, then:
as §1, §2, §3

Data set [3] has as its system Bacillus subtilis DSM 402. The data set is described as follows: microbe, parasite or virus in culture. The note with it: for Minimum inhibitory concentration, B. subtilis: DSM 402, 16 h. The method, then:
as §1, §2, §3

In data set [4] the test system is Staphylococcus aureus DSM 20231 (type strain). The data set is described as follows: microbe, parasite or virus in culture. The method, then:
as §1, §2, §3

A further data set has as its system M. luteus. The data set is described as follows: MIC in half-concentrated MH broth, polypropylene plates. It counts as cell-based. The settings on record: 18 h. The method, then: (§4) Determination of MIC values was performed in 96-well polypropylene microtiter plates (Life Technologies) in order to reduce the AMP binding. A series of 2-fold dilutions of the peptides was prepared directly in the plate in half-concentrated MH broth. The tested strains were grown to an optical density (600 nm) of 0.5 in half-concentrated MH broth and diluted 1:10^5 using the same medium. Then, 100 µL of this suspension was mixed with 100 µL of the peptide solution already prepared in the wells of the microtiter plate as mentioned earlier. […] The results given are mean values of three or more independent determinations.

For the next data set, the system named is S. aureus (133). Described as above. The settings on record: 133, 18 h. The format is cell-based. The method, then: as §4
Data set [5] relates to human red blood cells (hRBCs). The data set is described as follows: Hemolytic activity. It counts as cell-based. The method, then: (§5) Although an HC50 value was reported for (RW)3 [53], neither the D-amino acid peptide nor the organometallic derivatized peptides were studied with respect to their hemolytic capacity. Therefore, all peptides were tested in parallel to obtain HC50 values under identical conditions.
(§6) After drawing whole blood into anticoagulant containing tubes (BD Vacutainer®, K2 EDTA 3.6 mg, Ref 368841, Lot 1248213), its fractionation was executed with one volume whole blood added to nine volumes sterile 0.9% NaCl and centrifugation (800g, 10 min, 4 °C). Subsequently, the lowest fraction containing all hRBCs was washed twice with nine volumes 1 × PBS (PAA), triturating carefully. The concentrated hRBCs were re-suspended with 1 × PBS to an erythrocyte concentration of 5% (v/v). Wells of a 96-well plate were filled with 100 µL of the appropriate peptide solutions: The peptides were dissolved in 1 × PBS and DMSO (5% for (RW)3 and 50% for RcCO-W(RW)2). These were mixed with 100 µL of the 5% hRBCs solution and incubated under agitation on a flat shaker (170 rpm, 30 min, 37 °C). […] The release of hemoglobin was monitored by measuring the absorbance of the supernatant at 550 nm using an automated 96-well plate reader. […] Toxicity on human cancer cell lines was determined according to previously described procedures.

Data set [6] relates to human breast adenocarcinoma (MCF7). It counts as cell-based. The method, then: (§7) Finally, to determine whether the peptides are selective for bacterial cells, we tested the toxicity against mammalian cells using three malignant cell lines: human liver carcinoma (HepG2), human colon adenocarcinoma grade II (HT29) and human breast adenocarcinoma (MCF7) cell lines (Table 5).
(§8) After drawing whole blood into anticoagulant containing tubes (BD Vacutainer®, K2 EDTA 3.6 mg, Ref 368841, Lot 1248213), its fractionation was executed with one volume whole blood added to nine volumes sterile 0.9% NaCl and centrifugation (800g, 10 min, 4 °C). Subsequently, the lowest fraction containing all hRBCs was washed twice with nine volumes 1 × PBS (PAA), triturating carefully. The concentrated hRBCs were re-suspended with 1 × PBS to an erythrocyte concentration of 5% (v/v). Wells of a 96-well plate were filled with 100 µL of the appropriate peptide solutions: The peptides were dissolved in 1 × PBS and DMSO (5% for (RW)3 and 50% for RcCO-W(RW)2). These were mixed with 100 µL of the 5% hRBCs solution and incubated under agitation on a flat shaker (170 rpm, 30 min, 37 °C). After sedimenting all probes under centrifugation (800g, 10 min, 4 °C), all supernatants were transferred into a clean 96-well plate. The release of hemoglobin was monitored by measuring the absorbance of the supernatant at 550 nm using an automated 96-well plate reader. Controls for 0 and 100% hemolysis consisted of hRBC 5% (v/v) suspended in PBS containing DMSO in appropriate concentrations and 1% Triton X-100, respectively. Toxicity on human cancer cell lines was determined according to previously described procedures.

Data set [7] deals with human colon adenocarcinoma grade II (HT29). It counts as cell-based. The method, then: as §7, §8
Data set [8] concerns human liver carcinoma (HepG2). It counts as cell-based. The method, then:
as §7, §8

For data set [9], the system named is three human cancer cell lines (HepG2, HT29, MCF7).
Experimental: Toxicity on human cancer cell lines was determined according to previously described procedures [67–68].
Data set [10] concerns human red blood cells (hRBCs). The settings on record: cited from earlier work.
The test system of data set [11] is Staphylococcus aureus ATCC 43300 (MRSA). The data set is described as follows: microbe, parasite or virus in culture. The method, then: as §1, §2, §3
The subject of data set [12] is Pseudomonas aeruginosa DSM 50071. The data set is described as follows: MIC, microtiter plate assay (CLSI). The format is cell-based. The settings on record: for Minimum inhibitory concentration, P. aeruginosa: title: in the cell culture medium, CLSI guidelines, µM calculated with one TFA counterion per basic residue. The method, then:
as §1, §2, §3

The nature of a further data set: Hemolytic activity. It counts as cell-based, human. The settings on record: human, at 263 µg/mL (192 µM); 50% DMSO/PBS; relative to Triton X-100; read-out: hemolysis of hRBCs. The method, then: as §5, §6
Setting [13] is: title: in the cell culture medium, CLSI guidelines, µM calculated with one TFA counterion per basic residue.
The mark [14] stands for this setting: value outside brackets, title: in the cell culture medium.

Values after ≈ are worked out from the molar mass of the structure shown. Like-named read-outs stand apart in the source and are kept apart here. Square brackets hold non-standard residues; d marks the D form. Peptide text beside a SMILES is read from it. * marks the point of attachment. X1 = O=C([C]12[CH]3[CH]4[CH]5[CH]1[Ru]45321678[CH]2[CH]1[CH]6[CH]7[CH]28)* Bounds are passed on as bounds.

In general, IC50 refers to the concentration needed to halve the response being measured. High values mean lower potency, low ones higher potency.

With `N=C(N)NCCCC(N)C(=O)NC(Cc1c[nH]c2ccccc12)C(=O)NC(CCCNC(=N)N)C(=O)NC(Cc1c[nH]c2ccccc12)C(=O)NC(CCCNC(=N)N)C(=O)NC(Cc1c[nH]c2ccccc12)C(N)=O` (stereo not drawn) [(RW)3] (H-RWRWRW-NH2; configuration not given here), in data set [1] (DSM 30083, 16 h), the “Minimum inhibitory concentration, E. coli” value stood at 21 µM (≈ 21.9 µg/mL). For the same molecule, the “Minimum inhibitory concentration, A. baumannii” value in data set [2] (DSM 30007, 16 h) came out at 21 µM (≈ 21.9 µg/mL). For the same molecule, the “Minimum inhibitory concentration, B. subtilis” value in [3] amounted to 1.3 µM (≈ 1.36 µg/mL). The “Minimum inhibitory concentration, S. aureus” value in data set [4] (DSM 20231, 16 h) is recorded as 11 (11) µM. The “MIC, M. luteus” value in the data set on M. luteus came out at 0.6 ± 0.0 µg/mL (≈ 0.575 µM). Also, the “MIC, S. aureus (133)” value with S. aureus (133) came to 2.1 ± 0.7 µg/mL (≈ 2.01 µM). Also, in data set [5], the “concentration up to which no significant destruction of erythrocytes” value was “up to 500 µg/mL”. For the same molecule, the IC50 is 159 ± 7 µM in data set [6], 132 ± 12 µM in [7], 143 ± 21 µM in data set [8] and about 140 µM in data set [9]. Further, in data set [10], the “concentration of 50% hemolysis” value is given as ~ 250 µM.

For the molecule `CC(C)C[C@@H]1NC(=O)[C@H](CCCCN)NC(=O)[C@H](C(C)C)NC(=O)[C@@H]2CCCN2C(=O)[C@@H](Cc2ccc(O)cc2)NC(=O)[C@H](CC(C)C)NC(=O)[C@H](CCCCN)NC(=O)[C@H](C(C)C)NC(=O)[C@@H]2CCCN2C(=O)[C@@H](Cc2ccc(O)cc2)NC1=O` [GS(K2Y2), cyclo([Pro-Val-Lys-Leu-D-Tyr]2), reference compound] (cyclo(PVKL[dY]PVKL[dY])), the “Minimum inhibitory concentration, B. subtilis” value in data set [3] is 1.4 µM (≈ 1.68 µg/mL). The “Minimum inhibitory concentration, S. aureus (MRSA)” value in data set [11] (ATCC 43300, 16 h) is listed as 2.8 µM (≈ 3.36 µg/mL). The “Minimum inhibitory concentration, S. aureus” value in data set [4] (DSM 20231, 16 h) was 1.4 µM (≈ 1.68 µg/mL). The “Minimum inhibitory concentration, P. aeruginosa” value in data set [12] was “n.a. (‘n.a.’ means ‘not active’ (MIC > 100 μM))”.

Turning to `N=C(N)NCCC[C@H](NC(=O)[C@H](Cc1c[nH]c2ccccc12)NC(=O)[C@H](CCCNC(=N)N)NC(=O)[C@H](Cc1c[nH]c2ccccc12)NC(=O)[C]12[CH]3[CH]4[CH]5[CH]1[Ru]45321678[CH]2[CH]1[CH]6[CH]7[CH]28)C(=O)N[C@@H](Cc1c[nH]c2ccccc12)C(N)=O` (stereo partly drawn) [RcCO-W(RW)2] (X1-WRWRW-NH2), the hemolysis at 30 min, 192 µM in the data set “Hemolytic activity” was 64%.

With `CN[C@H](CC(C)C)C(=O)N[C@H]1C(=O)N[C@@H](CC(N)=O)C(=O)N[C@H]2C(=O)N[C@H]3C(=O)N[C@H](C(=O)N[C@H](C(=O)O)c4cc(O)cc(O)c4-c4cc3ccc4O)[C@H](O)c3ccc(c(Cl)c3)Oc3cc2cc(c3O[C@@H]2O[C@H](CO)[C@@H](O)[C@H](O)[C@H]2O[C@H]2C[C@](C)(N)[C@H](O)[C@H](C)O2)Oc2ccc(cc2Cl)[C@H]1O` [vancomycin, reference compound], the MIC in [2] (Acinetobacter baumannii, DSM30007, read-out: Minimum inhibitory concentration, A. baumannii) is 38 µM (≈ 55.1 µg/mL); in data set [3] (Bacillus subtilis, DSM402, read-out: Minimum inhibitory concentration, B. subtilis), 0.3 µM (≈ 0.435 µg/mL); in [11] (Staphylococcus aureus, ATCC43300|MRSA, read-out: Minimum inhibitory concentration, S. aureus (MRSA)) it was 0.6 µM (≈ 0.87 µg/mL); in [4] (Staphylococcus aureus, DSM20231, read-out: Minimum inhibitory concentration, S. aureus), 0.3 µM (≈ 0.435 µg/mL); in data set [12] (Pseudomonas aeruginosa, DSM50071, read-out: Minimum inhibitory concentration, P. aeruginosa) it was over 100 µM.

Ac-RWRWRW-NH2 [Ac(RW)3, Ac-RWRWRW-NH2]: the “Minimum inhibitory concentration, E. coli” value in data set [1] (DSM 30083, 16 h) worked out at 45 µM. In data set [3], the “Minimum inhibitory concentration, B. subtilis” value is listed as 45 µM.

On to FcCO-RWRWRW-NH2 [FcCO-(RW)3], for which, in data set [1] (setting [13]), the “Minimum inhibitory concentration, E. coli” value is reported as 20 µM.

For the molecule H-KWKWKW-NH2 [(KW)3], in data set [1] (setting [13]), the “Minimum inhibitory concentration, E. coli” value is “n.a. (‘n.a.’ means ‘not active’ (MIC > 100 μM))”. The “Minimum inhibitory concentration, A. baumannii” value in data set [2] (setting [13]) is reported as “n.a. (‘n.a.’ means ‘not active’ (MIC > 100 μM))”. The “Minimum inhibitory concentration, S. aureus (MRSA)” value in [11] (setting [14]) is given as “n.a. (‘n.a.’ means ‘not active’ (MIC > 100 μM))”. In addition, the “Minimum inhibitory concentration, S. aureus” value in data set [4] (setting [14]) is on record as “n.a. (‘n.a.’ means ‘not active’ (MIC > 100 μM))”. Moreover, the “Minimum inhibitory concentration, P. aeruginosa” value in data set [12] is recorded as “n.a. (‘n.a.’ means ‘not active’ (MIC > 100 μM))”.
